Data published in patent publication US20210128736A1, “STEREOCOMPLEX OF OLIGOLACTIC ACID CONJUGATES IN MICELLES FOR IMPROVED PHYSICAL STABILITY AND ENHANCED ANTITUMOR EFFICACY” (Wisconsin Alumni Research Foundation, priority 2018, published 2021).

Assays:
subcutaneous tumors = conditions: cited from earlier work
[1] = tested on: human A549 non-small lung cancer cells; test: In vitro cytotoxicity, CellTiter-Blue Cell Viability Assay, A549; format: cell-based; conditions: 72 hours incubation, micelles at 15% loading
Protocol: (§1) In vitro cytotoxicity studies. […] A549 cells were seeded into a 96-well plate at a seeding density of 1,500 cells/100 μL/well and cultured in RPMI 1640 medium, or PANC-1 cells were seeded into a 96-well plate at a seeding density of 5,000 cells/100 μL/well and cultured in Dulbecco Modified Eagle Medium (DMEM), at 37° C. in 5% CO2 incubator for 24 h. […] Cells cultured with diluted PBS in medium was used as controls. Drug treated cells were placed in an incubator at 5% CO2 at 37° C. for 72 h. The medium in each well was aspirated, and 100 μL of 20% (v/v) CellTiter-Blue reagent in serum free RPMI 1640 or DMEM was added, followed by incubation at 37° C. in 5% CO2 atmosphere for 1.5 h. Fluorescence intensity was measured by a SpectraMax M2 plate reader (Molecular Devices, San Jose, Calif.) with excitation and emission at 560 and 590 nm, respectively. The half maximal inhibitory drug concentration (IC50) was determined by using GraphPad Prism version 5.00 for Windows (GraphPad Software, La Jolla, Calif.).

[2] = mice, reported; cited from earlier work
[3] = Stability in rat plasma at 37° C. (RP-HPLC); conditions: 24 hours
[4] = tested on: PANC-1 pancreatic cancer cells; test: In vitro cytotoxicity, CellTiter-Blue Cell Viability Assay, PANC-1; format: cell-based; conditions: Homo sapiens; PANC-1 cells, 72 hours incubation; micelles at 15% loading
Protocol: as §1

[5] = tested on: A549 non-small cell lung cancer xenograft; test: In vivo antitumor efficacy in A549 xenograft model; parameters: species or system female athymic nude mice; conditions: 3-weekly I.V. injections at 10 mg/kg equivalent of GEM; micelles 5% loading; vs saline control
Protocol: In vivo antitumor efficacy studies. […] 6-8 week-old female athymic nude mice (20-25 g each) were acquired from laboratory animal resources at School of Medicine and Public Health, University of Wisconsin-Madison. Mice were housed in ventilated cages with free access to water and food and acclimated for 1 week prior tumor cell injection. A549 cells (2×10^6 cells in 100 μL of serum-free RPMI 1640 medium) were harvested from sub-confluent cultures after trypsinization and were injected subcutaneously into the right flank of each mouse. […] Drugs were administered via tail vein for 3 weekly injections. Body weight and tumor volume were monitored over the course of study. Tumor volume was calculated using the formula: V=(a×b^2)/2, where V is tumor volume, a is tumor length, b is tumor width.

For `Nc1ccn([C@@H]2O[C@H](CO)[C@@H](O)C2(F)F)c(=O)n1` [GEM, Gemcitabine], the “dose required to inhibit tumor growth” value (subcutaneous tumors; mice bearing subcutaneous tumors) is given as 100 mg/kg, the “efficacy against subcutaneous tumors” value (subcutaneous tumors; mice, GEM at 10 mg/kg) is given as “generally ineffective” and the IC50 [1] is given as roughly 1.1 µM. For the same compound, the “maximum tolerated doses (MTD)” value [2] was 100 mg/kg, the “intact GEM detected after incubation in plasma” value [3] was “less than 50%” and the IC50 [4] was roughly 9.2 µM. For the same compound, the “antitumor efficacy (tumor growth, relative tumor volume)” value [5] was “not effective”.
